This note sets out measurements from ChEMBL document CHEMBL2406934, “Orally available and efficacious α4β1/α4β7 integrin inhibitors” (Bioorg Med Chem Lett, 2013).

Calls of active or inactive are those of the source.

Series [1] can be described thus: AUC (0 to infinity) in po dosed rat. Format: ADME, organism-based. The note with it: plasma. Also on record: route oral, time infinity.
Series [2] in a line: Cmax in po dosed rat. Also on record: route oral. Format: ADME, organism-based. The note with it: in vivo.
The target in series [3] is T1, Integrin alpha-4/beta-1 (Homo sapiens, UniProt P05556+P13612). Nature of the series: Inhibition of alpha4beta1 integrin-mediated human jurkat cell adhesion to fibronectin in presence of human serum albumin. Format: protein-complex assay.
Series [4] deals with T1, Integrin alpha-4/beta-1. The experiment in a line: Inhibition of alpha4beta1 integrin-mediated human jurkat cell adhesion to fibronectin in absence of human serum albumin. Format: protein-complex assay.
Series [5] in a line: Cmax in rat at 30 mg/kg, po. The format is ADME, organism-based. Also on record: dose 30 mg/kg, route oral. The settings on record: in vivo.
Series [6] in a line: Clearance in iv dosed rat. Format: ADME, organism-based. The settings on record: in vivo.
A short description of series [7]: Volume of distribution at steady state in iv dosed rat. The format is ADME, organism-based. The note with it: in vivo, read-out: Vdss.
A short description of series [8]: Cmax in rat at 1000 mg/kg, po. Set-up: dose 1000 mg/kg, route oral. The note with it: in vivo. The format is ADME, organism-based.
Series [9] in a line: AUC (0 to infinity) in rat at 1000 mg/kg, po. The format is ADME, organism-based. Also on record: time infinity, dose 1000 mg/kg, route oral. The settings on record: plasma.
Series [10] is described as follows: AUC (0 to infinity) in rat at 30 mg/kg, po. The format is ADME, organism-based. Also on record: time infinity, dose 30 mg/kg, route oral. The settings on record: plasma.
A short description of series [11]: Half life in iv dosed rat. Format: ADME, organism-based. The settings on record: in vivo.
Series [12] in a line: Cmax in rat at 10 mg/kg, po. Format: ADME, organism-based. Set-up: dose 10 mg/kg, route oral. The note with it: in vivo.
Series [13] can be described thus: Cmax in rat at 3 mg/kg, po. Format: ADME, organism-based. Set-up: dose 3 mg/kg, route oral. The note with it: in vivo.
Series [14] deals with Rattus norvegicus. Nature of the series: Toxicity in rat assessed as weight gain at 1 to 1000 mg/kg, po after 10 days. The format is organism-based. Set-up: dose 1-1000 mg/kg, route oral. The note with it: in vivo, 240 h.
A short description of series [15]: Plasma concentration in rat at 10 mg/kg, po after 24 hrs. The format is ADME, organism-based. Set-up: dose 10 mg/kg, route oral.
Series [16] can be described thus: AUC (0 to infinity) in rat at 10 mg/kg, po. The format is ADME, organism-based. Also on record: time infinity, dose 10 mg/kg, route oral. The note with it: plasma.
The nature of series [17]: AUC (0 to infinity) in rat at 300 mg/kg, po. The format is ADME, organism-based. Also on record: time infinity, dose 300 mg/kg, route oral. The settings on record: plasma.
Series [18] in a line: Plasma concentration in rat at 30 mg/kg, po administered for 10 days measured 24 hrs post last dose. The format is ADME, organism-based. Also on record: dose 30 mg/kg, route oral.
Series [19] is described as follows: Oral bioavailability in rat. The note with it: in vivo. The format is ADME, organism-based.
Series [20] is described as follows: AUC (0 to infinity) in rat at 1 mg/kg, po. The format is ADME, organism-based. The note with it: plasma. Set-up: time infinity, dose 1 mg/kg, route oral.
The nature of series [21]: Plasma concentration in rat at 1000 mg/kg, po administered for 10 days measured 24 hrs post last dose. Format: ADME, organism-based. Set-up: dose 1000 mg/kg, route oral.
A short description of series [22]: Plasma concentration in rat at 100 mg/kg, po after 24 hrs. Format: ADME, organism-based. Also on record: dose 100 mg/kg, route oral.
The nature of series [23]: AUC (0 to infinity) in rat at 3 mg/kg, po. The settings on record: plasma. The format is ADME, organism-based. Also on record: time infinity, dose 3 mg/kg, route oral.
Series [24] can be described thus: Plasma concentration in HLA-B27 rat at 100 mg/kg, po bid administered for 11 days measured 12 hrs post last dose. Format: ADME, organism-based. Set-up: dose 100 mg/kg, route oral.
Series [25] is described as follows: Cmax in rat at 300 mg/kg, po. Format: ADME, organism-based. The note with it: in vivo. Set-up: dose 300 mg/kg, route oral.
Series [26] in a line: Plasma concentration in rat at 300 mg/kg, po administered for 10 days measured 24 hrs post last dose. The format is ADME, organism-based. Set-up: dose 300 mg/kg, route oral.
The test system of series [27] is Liver microsomes. The experiment in a line: Drug metabolism in rat liver microsomes assessed as (S)-2-(2-(ethylamino)-5-(N-isopropylmethylsulfonamido)pyrimidin-4-ylamino)-3-(4-(pyrrolidine-1-carbonyloxy)phenyl)propanoic acid synthesis. The format is ADME, Microsome. A general note: Microsomes from liver hold many membrane-bound enzymes, among them those of drug oxidation.

Series [28] can be described thus: Plasma concentration in rat at 100 mg/kg, po administered for 10 days measured 24 hrs post last dose. Format: ADME, organism-based. Also on record: dose 100 mg/kg, route oral.
Series [29] can be described thus: Plasma concentration in rat at 30 mg/kg, po after 24 hrs. The format is ADME, organism-based. Set-up: dose 30 mg/kg, route oral.
Series [30] can be described thus: Apparent volume of distribution in iv dosed rat. Format: ADME, organism-based. The settings on record: in vivo, read-out: Vz.
The nature of series [31]: Cmax in rat at 1 mg/kg, po. The format is ADME, organism-based. Set-up: dose 1 mg/kg, route oral. The note with it: in vivo.
Series [32] is described as follows: AUC (0 to infinity) in rat at 100 mg/kg, po. The settings on record: plasma. Format: ADME, organism-based. Set-up: time infinity, dose 100 mg/kg, route oral.
The nature of series [33]: Plasma concentration in rat at 1 mg/kg, po after 24 hrs. Set-up: dose 1 mg/kg, route oral. The format is ADME, organism-based.
The test system of series [34] is Liver microsomes. The experiment in a line: Drug metabolism in human liver microsomes assessed as (S)-2-(2-(ethylamino)-5-(N-isopropylmethylsulfonamido)pyrimidin-4-ylamino)-3-(4-(pyrrolidine-1-carbonyloxy)phenyl)propanoic acid synthesis. The format is ADME, Microsome.
Series [35] deals with Cavia porcellus. Nature of the series: Reduction on allergenic encephalomyelitis guinea pig EAE model at 300 mg/kg, po bid. Set-up: dose 300 mg/kg. Format: functional, organism-based.
Series [36] in a line: Plasma concentration in rat at 300 mg/kg, po after 24 hrs. Format: ADME, organism-based. Set-up: dose 300 mg/kg, route oral.
Series [37] is described as follows: Plasma concentration in rat at 1000 mg/kg, po after 24 hrs. The format is ADME, organism-based. Set-up: dose 1000 mg/kg, route oral.
A short description of series [38]: Plasma concentration in rat at 10 mg/kg, po administered for 10 days measured 24 hrs post last dose. The format is ADME, organism-based. Set-up: dose 10 mg/kg, route oral.
Series [39] can be described thus: Plasma concentration in rat at 3 mg/kg, po after 24 hrs. Format: ADME, organism-based. Set-up: dose 3 mg/kg, route oral.
Series [40] is described as follows: Cmax in rat at 100 mg/kg, po. The format is ADME, organism-based. Set-up: dose 100 mg/kg, route oral. The note with it: in vivo.

T1 sequence (P05556 whole entry): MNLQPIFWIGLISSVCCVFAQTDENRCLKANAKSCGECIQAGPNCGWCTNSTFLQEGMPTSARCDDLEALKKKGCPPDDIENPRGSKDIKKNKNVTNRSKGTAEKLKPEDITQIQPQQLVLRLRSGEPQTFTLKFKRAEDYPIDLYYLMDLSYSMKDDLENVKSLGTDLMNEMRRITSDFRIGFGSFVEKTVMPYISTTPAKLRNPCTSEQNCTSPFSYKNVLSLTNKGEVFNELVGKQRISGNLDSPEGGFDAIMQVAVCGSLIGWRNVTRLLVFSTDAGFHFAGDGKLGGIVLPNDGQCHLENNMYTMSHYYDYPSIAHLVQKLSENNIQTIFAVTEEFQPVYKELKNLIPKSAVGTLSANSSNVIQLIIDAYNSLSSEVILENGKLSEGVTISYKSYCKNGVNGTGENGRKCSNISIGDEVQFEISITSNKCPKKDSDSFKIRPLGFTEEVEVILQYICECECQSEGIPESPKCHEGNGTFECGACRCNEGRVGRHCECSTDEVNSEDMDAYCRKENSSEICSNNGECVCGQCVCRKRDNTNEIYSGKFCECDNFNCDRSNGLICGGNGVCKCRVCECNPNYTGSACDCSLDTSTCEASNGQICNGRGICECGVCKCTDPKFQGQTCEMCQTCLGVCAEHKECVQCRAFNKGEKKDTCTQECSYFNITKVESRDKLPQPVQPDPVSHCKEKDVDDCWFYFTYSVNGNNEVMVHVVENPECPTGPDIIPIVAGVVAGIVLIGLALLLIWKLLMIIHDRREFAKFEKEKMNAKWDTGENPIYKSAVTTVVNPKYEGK
T1 sequence (P13612 whole entry): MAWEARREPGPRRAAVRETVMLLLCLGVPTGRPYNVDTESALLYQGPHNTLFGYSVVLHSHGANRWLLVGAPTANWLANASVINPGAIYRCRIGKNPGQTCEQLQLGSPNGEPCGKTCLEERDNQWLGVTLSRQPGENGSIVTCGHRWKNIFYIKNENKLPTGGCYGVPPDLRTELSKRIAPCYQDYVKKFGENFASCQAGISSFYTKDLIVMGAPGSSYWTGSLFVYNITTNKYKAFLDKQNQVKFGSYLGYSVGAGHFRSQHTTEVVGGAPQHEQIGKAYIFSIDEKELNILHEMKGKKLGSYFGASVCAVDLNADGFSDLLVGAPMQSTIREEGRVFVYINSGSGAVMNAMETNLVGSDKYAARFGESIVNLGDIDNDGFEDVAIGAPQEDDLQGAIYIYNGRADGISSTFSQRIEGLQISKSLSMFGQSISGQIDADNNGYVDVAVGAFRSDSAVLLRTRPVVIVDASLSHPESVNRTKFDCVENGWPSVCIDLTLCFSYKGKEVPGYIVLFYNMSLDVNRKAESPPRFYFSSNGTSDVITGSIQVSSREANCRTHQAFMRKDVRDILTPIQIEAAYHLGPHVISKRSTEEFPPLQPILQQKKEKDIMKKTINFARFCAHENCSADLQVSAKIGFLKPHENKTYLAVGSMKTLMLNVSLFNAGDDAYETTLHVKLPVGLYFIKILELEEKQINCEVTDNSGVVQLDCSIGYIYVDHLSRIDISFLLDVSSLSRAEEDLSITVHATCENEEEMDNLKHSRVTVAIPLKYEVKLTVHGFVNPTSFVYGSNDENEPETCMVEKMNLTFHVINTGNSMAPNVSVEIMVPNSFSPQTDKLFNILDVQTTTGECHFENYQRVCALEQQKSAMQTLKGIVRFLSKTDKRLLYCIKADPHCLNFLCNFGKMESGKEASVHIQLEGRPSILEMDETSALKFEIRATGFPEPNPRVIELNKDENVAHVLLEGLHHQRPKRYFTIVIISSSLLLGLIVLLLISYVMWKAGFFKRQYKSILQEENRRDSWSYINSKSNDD

In general, AUC(0-inf) refers to total exposure, with the tail of the curve extrapolated. High values mean more exposure, low ones less exposure. One may read the Cmax as the highest concentration seen after dosing. What is called IC50 is the midpoint of a concentration-inhibition curve. In [1], `CCNc1ncc(N(C(C)C)S(C)(=O)=O)c(N[C@@H](Cc2ccc(OC(=O)N3CCCC3)cc2)C(=O)O)n1` gave an AUC(0-inf) of 6.8 µg·h/mL. For the same compound, the concentration in [2] peaked (Cmax) at 1400 ng/mL. The results for the IC50 in series [3] and in series [4] were 4.82 µM and 0.0233 µM, respectively.

In general, clearance refers to a measure of how efficiently the substance is removed, as volume per time. A high value points to a high capacity for elimination. The term half-life denotes the time needed for the level to fall by half in the phase considered. The low end stands for fast loss, the high end for slow loss. By bioavailability is commonly meant the share of a dose that reaches the circulation, judged against a reference dose that is usually intravenous. Read a high bioavailability as much systemic uptake. Consider `CCN(CC)c1ncc(N(C(C)C)S(C)(=O)=O)c(N[C@@H](Cc2ccc(OC(=O)N3CCCC3)cc2)C(=O)O)n1`, for which the Cmax in [5] is 17400 ng/mL; in series [8] it was 214000 ng/mL; in series [12], 3600 ng/mL; in [13] it was 1100 ng/mL; in series [2] it was 16500 ng/mL; in series [25] it was 153000 ng/mL. The peak concentration (Cmax) came out at 230 ng/mL in [31] and 105000 ng/mL in series [40]. In series [6], this compound showed a clearance of 0.172 mL/min/kg. Further, the results for the Vd in series [7] and in series [30] were 0.068 L/kg and 0.108 L/kg, respectively. For the same compound, the AUC(0-inf) in series [9] turned out to be 4480 µg·h/mL; in series [10] it was 275 µg·h/mL; in series [16] it was 76 µg·h/mL; in [17] it was 2980 µg·h/mL; in [1], 221 µg·h/mL; in series [20] it was 5.9 µg·h/mL. Further, the values for the AUC(0-inf) in [23] and in series [32] were 24.2 µg·h/mL and 1260 µg·h/mL, respectively. Further, in [11], the half-life is 7.3 h. Besides, in [14], the Activity result was “Non-toxic”. Also, the concentration at 24 h in series [15] turned out to be 1010 ng/mL; in series [18], 13000 ng/mL; in series [21], 100000 ng/mL; in series [22] it was 13600 ng/mL; in series [26] it was 43100 ng/mL; in [28] it was 28500 ng/mL. Moreover, the concentration at 24 h in [29] was found to be 4250 ng/mL; in series [33], 110 ng/mL; in series [36], 46200 ng/mL; in series [37], 71400 ng/mL; in series [38], 3380 ng/mL; in series [39], 358 ng/mL. The compound also had a bioavailability in [19] of 17%. The compound also returned a concentration at 12 h in series [24] of 2500 ng/mL. The Drug metabolism result in series [27] and in series [34] was “Active” each time. Besides, the outcome in [35] was inactive.
